The text below walks through data of patent US20120251584A1, “Combination pharmaceutical composition and methods of treating diseases or conditions associated with the cardiovascular system” (priority 2010, published 2012).

For assay [1], the system named is Wistar rats with L-NAME endothelial dysfunction. The experiment in a line: Correction of endothelial dysfunction simulated by L-NAME in rats. The assay is classed as in vivo, rat. Here is the method: Wistar rats weighed 250-300 g were divided into 4 groups. The 1st group received distilled water 9 ml/kg/day (every day, gastrointestinal introduction). […] The third group received L-NAME (12.5 mg/kg) in combination with a mixture of C12, C30, and C200 homeopathic dilutions of polyclonal rabbit antibodies to human endothelial NO synthase at 9 ml/kg/day. The 4th group received L-NAME ([…]) in combination with a mixture of C12, C30, and C200 homeopathic dilutions of polyclonal rabbit antibodies to human endothelial NO synthase at 9 ml/kg/day and mixture of C12, C30, C200 homeopathic dilutions of polyclonal rabbit antibodies to a C-terminal fragment of AT1 receptor of angiotensin II at 9 ml/kg/day.
Endothelial dysfunction was simulated by introducing L-NAME at […] in the course of 28 days. On day 29 from the beginning of the experiment, under anesthesia (sodium thiopental at 50 mg/kg), a catheter was inserted into the left carotid artery to register parameter of arterial pressure (AP). Bolus introduction of the pharmacological agent was made into right femoral vein. The following parameters were measured: systolic arterial pressure (SAP), diastolic arterial pressure (DAP), and frequency of heart beat, which were measured in real time by sensor TSD104A measurement apparatus MP100 made by Biopac System, Inc., USA. The following functional probes were used: endothelium-dependent vasodilation (EDV), intra-vein introduction of acetylcholine (AC) in the dose of 40 μg/kg, endothelium-independent vasodilation (EIV) via intravein introduction of sodium nitroprusside at 30 μ/kg.
The degree of endothelial dysfunction was evaluated via the coefficient of endothelial dysfunction as the ratio of the area of the triangle under the trend of reaction of stabilization of arterial pressure (AP) as a response to introduction of nitroprusside to the area of the triangle under the trend of reaction of stabilization of arterial pressure as a response to introduction of acetylcholine.

In assay [2] the test system is female Wistar rats with chronic heart failure (CHF). Nature of the assay: Chronic heart failure (CHF) model induced by isadrine in rats: electrocardiogram, rheogram, exercise tolerance. As to conditions: change in % on Day 28 vs. Day 7, gastric gavage.
Protocol: Study of the efficacy of the combined drug based on ultra-low doses (ULD), i.e. the activated-potentiated solutions as described above, of antibodies to a C-terminal fragment of angiotensin II AT1 receptor and antibodies to endothelial NO synthase (mixture of homeopathic dilutions C12, C30 and C200) in chronic heart failure (CHF) was conducted in 75 female Wistar rats (4-5 months old, weighing 220-250 g).
For chronic heart failure modeling all rats were receiving isadrine (isoproterenol hydrochloride, Sigma, Germany) 80 mg/kg twice with 24-hour interval. Animals (15 per group) were receiving the following drugs by gastric gavage: group 1 —7.5 mL/kg of ULD of antibodies against a C-terminal fragment of angiotensin II AT1 receptor (mixture of homeopathic dilutions C12, C30 and C200), group 2 —7.5 mL/kg of ULD of anti-endothelial NO synthase antibodies (mixture of homeopathic dilutions C12, C30 and C200), group 3 —15 mL/kg of combined drug (mixture of homeopathic dilutions C12, C30 and C200), group 4 —7.5 mL/kg (dose of 10 mg/kg) of losartan as a comparator, group 5 (control)—7.5 mL/kg of distilled water.
Assay [3] has as its system NISAG line male rats with hereditary stipulated stress-sensitive arterial hypertension. The experiment in a line: NISAG rat hypertension model, systolic blood pressure. The assay is classed as in vivo. The procedure: Investigations were conducted on 50 NISAG line male rats (weight 300 g, age 4 months) with hereditary stipulated stress-sensitive arterial hypertension, which were divided into 5 groups by 10 animals each.
Two times a week, 2 to 6 hours after administration of ULD antibodies and losartan, systolic blood pressure (SBP) was measured by an indirect method in a tail artery (using a cuff).

[4] abbreviates: functional probe: Acetyl choline 40 μg/kg, day 29.
The mark [5] stands for this setting: functional probe: Initial, day 29, L-NAME 28 days.
[6] abbreviates: functional probe: Sodium Nitroprusside, day 29.

Turning to `COC(=O)[C@@H](N)CCCNC(=N)N[N+](=O)[O-]` [L-NAME, L-NG-nitroarginine methyl ester], the “Vascular reaction observed with EDV with acetyl choline” value in assay [1] (area under the curve of restoration of arterial pressure, Acetyl choline probe) was 3700.2 ± 536.9. Also, the “Vascular reaction observed with EIV with sodium nitroprusside” value in assay [1] (area under the curve of restoration of arterial pressure, Sodium Nitroprusside probe) is recorded as 11922.8 ± 1838.9. Besides, the DAP in assay [1] (setting [4]) is given as 64.7 ± 4.3 mm HG; in assay [1] (setting [5]), 164.2 ± 5.9 mm HG; in assay [1] (setting [6]), 61.4 ± 4.4 mm HG. Further, the SAP is reported as 111.3 ± 7.4 mm, HG in assay [1] (setting [4]); 204.8 ± 10 mm, HG in assay [1] (setting [5]); 118.2 ± 9.9 mm, HG in assay [1] (setting [6]). The “CED (coefficient of endothelial dysfunction)” value in assay [1] (ratio of nitroprusside area to acetylcholine area) was 3.5 ± 0.5 relative units.

For the compound `CCCCc1nc(Cl)c(CO)n1Cc1ccc(-c2ccccc2-c2nn[nH]n2)cc1` [Losartan, losartan], in assay [2], the Cardiac output amounted to 55.31%, the Heart rate is reported as −21.28%, the “Systolic volume (by Kubrick)” value was 64.01% and the T-wave amplitude is recorded as −31.64%. Besides, in assay [3] (SBP after 28 days vs initial), the “Δ in comparison with the initial level, in mmHg” value is −33 mmHg. Also, the “% of the initial level” value in assay [3] (SBP change after 28 days vs initial) was −19%. Further, the “Initial SBP in mmHg” value in assay [3] (before treatment) is on record as 173.5 mmHg. Moreover, the “SBP after 28 days of medicine administration in mmHg” value in assay [3] (per orally once a day for 28 days) was 140.5 mmHg.
